# Laboratory results reported in PubChem BioAssay AID608 (Sanford-Burnham Center for Chemical Genomics, 2007).
# Calls of active or inactive are those of the source. No rule for the calls is given here.
# Molecular target: Peptidyl-prolyl cis-trans isomerase FKBP1A (Homo sapiens) (UniProt P62942)
# Test: small-molecule binding to FKBP12 – biophysical, NMR detection (AID 608)
# Conditions: purified FKBP12
# Peptidyl-prolyl cis-trans isomerase FKBP1A (Homo sapiens), sequence (P62942 whole entry, looked up): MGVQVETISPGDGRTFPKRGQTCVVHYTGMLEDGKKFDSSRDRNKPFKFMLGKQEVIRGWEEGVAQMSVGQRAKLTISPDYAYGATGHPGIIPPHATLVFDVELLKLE
row,SMILES,Kd
1,C[C@]12CCC3C(CC[C@]4(O)C[C@@H](O)CC[C@]34C=O)[C@@]1(O)CCC2C1=CC(=O)OC1 (some centres undefined),> 4 mM (inactive)
2,CCS(=O)(=O)N1CCN(c2ccccc2F)CC1,> 4 mM (inactive)
3,O=C(Nc1ccccc1)Nc1ccccc1,> 4 mM (inactive)
4,NC(=O)CSc1nnc(-c2ccncc2)o1,> 4 mM (inactive)
5,CC(C)CCCC(C)[C@H]1CCC2C3CC[C@H]4CC(=O)CC[C@]4(C)C3CC[C@@]21C (some centres undefined),> 4 mM (inactive)
6,CSc1ccc(S(=O)(=O)N2CCCC2)cc1,> 4 mM (inactive)
7,O=C(Nc1cccnc1)Nc1ccc2c(c1)OCO2,> 4 mM (inactive)
8,O=C1Nc2ccccc2C1(O)Cc1ccncc1 (centres undefined),> 4 mM (inactive)
9,COc1cc2cc3c4cc(OC)c(OC)cc4cc[n+]3c(C)c2cc1OC,> 4 mM (inactive)
10,O=C(Nc1c[nH]c(=O)[nH]c1=O)c1cccs1,> 4 mM (inactive)
11,CNS(=O)(=O)c1cc(OC)ccc1OC,> 4 mM (inactive)
12,COc1cc(NC(=O)c2ccccc2)c(C)cc1N,> 4 mM (inactive)
13,Cn1c(CNc2ccccc2)cc(=O)n(C)c1=O,> 4 mM (inactive)
14,O=C(COc1ccc(S(=O)(=O)NC2CCCC2)cc1)N1CCOCC1,inactive
15,COC(=O)c1ccccc1N(C)S(C)(=O)=O,> 4 mM (inactive)
16,C[C@@H]1[C@H]2[C@H](O[C@@H]3O[C@H](CO)[C@@H](O)[C@H](O)[C@H]3O)OC=C(C(=O)O)[C@H]2C[C@@H]1O,> 4 mM (inactive)
17,O=c1[nH]c(CN2CCN(CCO)CC2)nc2ccccc12,> 4 mM (inactive)
18,CCCS(=O)(=O)N1CCN(c2ccccn2)CC1,> 4 mM (inactive)
19,COc1ccc(C2(C)CC(=O)NC2=O)cc1 (centres undefined),> 4 mM (inactive)
20,NC1C2CC3CC1CC(O)(C3)C2 (centres undefined),> 4 mM (inactive)
21,CC1(C)CC[C@]2(C(=O)O)CC[C@]3(C)C(=CCC4[C@@]5(C)CC[C@H](O)[C@@](C)(CO)C5CC[C@]43C)C2C1 (some centres undefined),> 4 mM (inactive)
22,O=C(/C=C/c1ccco1)NC1=NCCS1,> 4 mM (inactive)
23,Cn1c(CO)nc2ccccc21,> 4 mM (inactive)
24,CC(C)(OC(=O)c1ccccc1)[C@@H]1Cc2cc3ccc(=O)oc3cc2O1,> 4 mM (inactive)
25,COC(=O)Cc1cc(=O)n(-c2ccccc2)[nH]1,> 4 mM (inactive)

row,SMILES,Kd
1,Cc1cc(NC(=O)c2ocnc2C)no1,> 4 mM (inactive)
2,Cn1c(=O)c2ccccc2n(Cc2ccccc2F)c1=O,> 4 mM (inactive)
3,CC(=O)c1ccc(Cc2cnc(N)s2)cc1,> 4 mM (inactive)
4,NCCc1nc2ccccc2[nH]1,> 4 mM (inactive)
5,CN1C2C[C@H](OC(=O)[C@H](CO)c3ccccc3)C[C@H]1[C@@H](O)C2,> 4 mM (inactive)
6,Cc1cc(O)cc(=O)n1CCCC(=O)O,> 4 mM (inactive)
7,Cc1ccc(CCNc2ccccc2)c[n+]1[O-],> 4 mM (inactive)
8,Cc1cc(O)cc(O)c1C(=O)O,> 4 mM (inactive)
9,Cc1nc2[nH]onc2c2nccc(=O)c12,> 4 mM (inactive)
10,O=C(O)CCCCCCCC(=O)O,> 4 mM (inactive)
11,O=C(NCc1ccccc1Cl)c1cnn2cccnc12,> 4 mM (inactive)
12,N#Cc1nc(-c2cccs2)oc1N1CCOCC1,> 4 mM (inactive)
13,C/C=C(\C)C(=O)OC1[C@@H]2C=C3C(CC[C@]4(C)C3CC(=O)O[C@H]4c3ccoc3)C(C)(C2=O)[C@@H](C(O)C(=O)OC)C1(C)C (some centres undefined),> 4 mM (inactive)
14,Cc1nc(CC(=O)O)c(-c2ccccc2)s1,> 4 mM (inactive)
15,CC12CCCC(O)(C1)C1CC(C)(C)C1CC2 (centres undefined),> 4 mM (inactive)
16,COc1cc2c(cc1OC)C1(O)C(=O)c3ccc(O)c(C(=O)O)c3OC1CO2 (centres undefined),> 4 mM (inactive)
17,NCCc1cnc[nH]1,> 4 mM (inactive)
18,Cc1cc(NC(=O)c2cc(C)on2)no1,> 4 mM (inactive)
19,CN(C)Cc1c(N)cccc1O,> 4 mM (inactive)
20,CC(C)(C)CC(=O)NNC(=O)c1cnccn1,> 4 mM (inactive)
21,O=c1[nH]c(=O)n(-c2ccc(F)cc2)c(O)c1/C=C1/C=CC=N1,> 4 mM (inactive)
22,O=C(NCCO)c1cc2ccccc2cc1O,> 4 mM (inactive)
23,Cc1cc(=O)n2[nH]c(COc3ccccc3)nc2n1,> 4 mM (inactive)
24,Cc1cc(NC(=O)c2ccc3c(c2)OCCO3)no1,> 4 mM (inactive)
25,COc1ccc2ccc(=O)oc2c1CC=C(C)C,> 4 mM (inactive)

row,SMILES,Kd
1,Cn1cccc1C(=S)N1CCOCC1,> 4 mM (inactive)
2,O=C1CN(c2ccccc2)CC(=O)N1,> 4 mM (inactive)
3,NC(=O)CS(=O)(=O)c1ccc2ccccc2c1,> 4 mM (inactive)
4,Cc1cc(C)n2nc(C(=O)NCc3ccco3)nc2n1,> 4 mM (inactive)
5,CC(=O)Nc1ccc2c(c1)C(=O)N(C1CCCCC1)C2=O,> 4 mM (inactive)
6,Nc1cc(=O)[nH]c(SCC(=O)NC2CCCCC2)n1,> 4 mM (inactive)
7,CNC(=O)c1ccccc1-c1ccccc1,> 4 mM (inactive)
8,C/C=C/COc1nc2c(c(=O)n(C)c(=O)n2C)n1C,> 4 mM (inactive)
9,NC(=O)C1CCN(C(=S)c2cccs2)CC1,> 4 mM (inactive)
10,CC1CN(C2=NCCN2)CC(C)O1 (centres undefined),> 4 mM (inactive)
11,CC1CN(C(=O)c2sc3ccccc3c2Cl)CC(C)O1 (centres undefined),inactive
12,Cc1ccc(CNc2ccc(O)cc2)cc1,> 4 mM (inactive)
13,CC(=O)Oc1ccc(-c2nc(-c3cccnc3)no2)cc1,> 4 mM (inactive)
14,Cc1ccc(S(=O)(=O)CC(=O)N2CCOCC2)cc1,0.095 mM
15,COCCn1c(C)cc(O)cc1=O,> 4 mM (inactive)
16,O=S(=O)(Cc1ccccc1)N1CCCCCC1,> 4 mM (inactive)
17,Cc1ccn(S(=O)(=O)c2ccc(F)cc2)n1,> 4 mM (inactive)
18,NC(=S)CN1CCCC1=O,> 4 mM (inactive)
19,O=P(c1ccccc1)(c1ccccc1)C1CCOCC1,> 4 mM (inactive)
20,Cc1cc(NC(=O)CS(=O)(=O)c2ccccc2)no1,> 4 mM (inactive)
21,COc1ccc(-c2cc(=O)c3c(OC)c(OC)c(OC)c(OC)c3o2)cc1,> 4 mM (inactive)
22,O=C(O)C(O)C(O)C(O)C(O)C(=O)O (centres undefined),> 4 mM (inactive)
23,O=C(O)c1ncoc1-c1ccccc1,> 4 mM (inactive)
24,CSc1ccccc1NC(=O)c1ccc(C)o1,> 4 mM (inactive)
25,NC(=O)C1CCN(c2nccc(C(F)(F)F)n2)CC1,> 4 mM (inactive)

row,SMILES,Kd
1,Cc1nnc(SCc2ccon2)n1-c1ccccc1,0.0385 mM
2,O=C1NCC(=O)N2CCc3ccccc3C12 (centres undefined),> 4 mM (inactive)
3,Cn1c(CSc2nc3ccccc3s2)n[nH]c1=S,> 4 mM (inactive)
4,O=C(O)c1cc2ccccc2[nH]1,> 4 mM (inactive)
5,CCCc1ncc(C(O)c2cccc3ccccc23)n1C (centres undefined),> 4 mM (inactive)
6,O=[N+]([O-])c1cccc(-c2nnco2)c1,> 4 mM (inactive)
7,O=C(O)c1ccc(-n2cncn2)cc1,> 4 mM (inactive)
8,Clc1ccc(-c2noc(CN3CCCC3)n2)cc1,> 4 mM (inactive)
9,O=C(O)c1[nH]nc2c1COc1ccccc1-2,> 4 mM (inactive)
10,O=C1CSC(=Nc2cccc(C(F)(F)F)c2)N1,> 4 mM (inactive)
11,Nc1[nH]c(=S)[nH]c(=O)c1-c1ccccc1,> 4 mM (inactive)
12,CC(=O)Nc1ccncc1NC(C)=O,> 4 mM (inactive)
13,NCc1ccc(-c2cccs2)cc1,> 4 mM (inactive)
14,CNc1ccccc1C(=O)O,> 4 mM (inactive)
15,O=C(O)CN1CCNCC1,> 4 mM (inactive)
16,Nc1ccc2c(c1)N1CCN=C1S2,> 4 mM (inactive)
17,CN1C(=O)/C(=C/c2ccccc2O)NC1=S,> 4 mM (inactive)
18,Cc1cc(C(=O)NN2CCOCC2)c(C)o1,> 4 mM (inactive)
19,C=C[C@@](C)(O)CCC1C(=C)CCC2[C@@](C)(CO)CCC[C@]12C (some centres undefined),> 4 mM (inactive)
20,OCc1ccc2nonc2c1,> 4 mM (inactive)
21,CSc1nc2[nH]ncc2c(=O)[nH]1,> 4 mM (inactive)
22,O=C(CSc1nnc2ccccn12)N1CCOCC1,0.221 mM
23,O=C(c1cccc(-n2cnnn2)c1)N1CCOCC1,> 4 mM (inactive)
24,O=C(O)C1CCN(C(=O)c2cccs2)CC1,> 4 mM (inactive)
25,Cc1cc(NC(=O)c2cccc(N3C(=O)CCC3=O)c2)no1,> 4 mM (inactive)

row,SMILES,Kd
1,Cc1n[nH]c(=S)n1-c1ccc(C(=O)O)cc1,> 4 mM (inactive)
2,CN1CCC[C@H]1c1cccnc1,> 4 mM (inactive)
3,CC(=O)c1ccc(NC(=S)N2CCC(O)CC2)cc1,> 4 mM (inactive)
4,O=C(Cc1cccs1)Nc1nncs1,> 4 mM (inactive)
5,Cc1nc(-c2cc(CO)no2)cs1,> 4 mM (inactive)
6,Cc1cccc(NC(=O)NC(N)=O)c1,> 4 mM (inactive)
7,O=C(O)c1ccc2ncccc2c1,> 4 mM (inactive)
8,Cc1ccc(-n2nnnc2SCC(N)=O)c(C)c1,> 4 mM (inactive)
9,C/C=C/c1ccc2c(c1)OCO2,> 4 mM (inactive)
10,CSc1ccccc1NC(=O)c1cnccn1,> 4 mM (inactive)
11,CC(=O)Nc1cccc(Cn2cccn2)c1,> 4 mM (inactive)
12,CNC(=O)Nc1ccc(C(=O)NC)cc1,> 4 mM (inactive)
13,Cc1cc(C(=O)Nc2ccccn2)no1,> 4 mM (inactive)
14,Cc1nn(-c2ccccc2)nc1CO,> 4 mM (inactive)
15,O=C1c2ccccc2C(=O)N1CCc1ccccn1,> 4 mM (inactive)
16,O=C(O)c1ccc2c(c1)CCO2,> 4 mM (inactive)
17,CC(Sc1ncn[nH]1)C(=O)O (centres undefined),> 4 mM (inactive)
18,OCc1ccc(N2CCOCC2)cc1,> 4 mM (inactive)
19,CC(=O)Nc1ccc(C(=O)N2CCOCC2)cc1Cl,> 4 mM (inactive)
20,COc1ccc(/C=C2\NC(=S)N(C)C2=O)cc1O,> 4 mM (inactive)
21,COCC(=O)Nc1nc2ccc(C)cc2s1,> 4 mM (inactive)
22,CC(=O)Oc1ccccc1N1C(=O)C=CC1=O,> 4 mM (inactive)
23,CCOC(=O)c1cc2ccccc2oc1=O,> 4 mM (inactive)
24,Cc1oc2nc3c(c(=O)[nH]c(=O)n3C)n2c1C,> 4 mM (inactive)
